# Patent publication US8119641B2, “1H-furo[3,2-C]pyrazole compounds useful as kinase inhibitors” (Nerviano Medical Sciences S.R.L., priority 2006, dated 2012)
# What was measured:
# [1] = test system: human colon cancer cell line HCT-116; experiment: In vitro cell proliferation assay; type: cell-based; settings: HCT-116, 72 hours of treatment, read-out: Cell Antiproliferation IC50
# Experimental: The compounds of the invention were further tested, in vitro to assess the anti-proliferative effect onto cell cultures.
# In Vitro Cell Proliferation Assay
# The human colon cancer cell line HCT-116 was seeded at 5000 cells/cm^2 in 24 wells plate (Costar) using F12 medium (Gibco) supplemented with 10% FCS (EuroClone, Italy) 2 mM L-glutamine and 1% penicillin/streptomycin and maintained at 37° C., 5% CO2 and 96% relative humidity. The following day, plates were treated in duplicates with 5 ul of an appropriate dilution of compounds starting from a 10 mM stock in DMSO. Two untreated control wells were included in each plate. After 72 hours of treatment, medium was withdrawn and cells detached from each well using 0.5 mL of 0.05% (w/v) Trypsin, 0.02% (w/v) EDTA (Gibco) Samples were diluted with 9.5 mL of Isoton (Coulter) and counted using a Multisizer 3 cell counter (Beckman Coulter). Data were evaluated as percent of the control wells, % of CTR=(Treated−Blank)/(Control−Blank). IC50 values were calculated by LSW/Data Analysis using Microsoft Excel sigmoidal curve fitting.
# Aurora-2 = biological target: T1, Aurora-2 (Homo sapiens, UniProt O14965); experiment: Inhibition assay of Aurora-2 activity (SPA); type: biochemical
# T1 sequence (O14965 1-403): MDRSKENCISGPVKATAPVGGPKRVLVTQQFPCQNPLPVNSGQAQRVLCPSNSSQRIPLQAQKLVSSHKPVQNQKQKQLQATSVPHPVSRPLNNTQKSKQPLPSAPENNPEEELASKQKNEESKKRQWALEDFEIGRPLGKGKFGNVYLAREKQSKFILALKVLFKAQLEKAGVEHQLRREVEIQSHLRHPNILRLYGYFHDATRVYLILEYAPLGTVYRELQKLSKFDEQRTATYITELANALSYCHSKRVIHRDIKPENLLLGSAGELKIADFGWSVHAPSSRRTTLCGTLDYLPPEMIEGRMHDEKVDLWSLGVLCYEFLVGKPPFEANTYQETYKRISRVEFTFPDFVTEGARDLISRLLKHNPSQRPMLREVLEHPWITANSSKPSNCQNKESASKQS
# Experimental: The inhibiting activity and the potency of selected compounds is determined through a method of assay based on the use of the SPA technology (Amersham Pharmacia Biotech).
# The assay consists of the transfer of radioactivity labelled phosphate moiety by the kinase to a biotinylated substrate. The resulting 33P-labelled biotinylated product is allowed to bind to streptavidin-coated SPA beads (biotin capacity 130 pmol/mg), and light emitted was measured in a scintillation counter.
# Inhibition Assay of Aurora-2 Activity
# Kinase reaction: 8 μM biotinylated peptide (4 repeats of LRRWSLG), 10 μM ATP (0.5 uCi P^33γ-ATP), 7.5 ng Aurora 2, inhibitor in a final volume of 30 μl buffer (HEPES 50 mM pH 7.0, MgCl2 10 mM, 1 mM DTT, 0.2 mg/mL BSA, 3 μM orthovanadate) were added to each well of a 96 U bottom well plate. After 60 minutes at room temperature incubation, reaction was stopped and biotinylated peptide captured by adding 100 μl of bead suspension.
# Stratification: 100 μl of CsCl 5 M were added to each well and let stand 4 hour before radioactivity was counted in the Top-Count instrument.
# IC50 determination: inhibitors were tested at different concentrations ranging from 0.0015 to 10 μM. […]
compound,measurement,setting,value
"CC(C)(NC(=O)c1cc2[nH]nc(NC(=O)c3ccccc3NC(=O)c3ccc[nH]3)c2o1)c1ccccc1 [(1), 3-{2-[(1H-Pyrrole-2-carbonyl)-amino]-benzoylamino}-1H-furo[3,2-c]pyrazole-5-carboxylic acid (1-methyl-1-phenyl-ethyl)-amide]",IC50,[1],5 nM
same,IC50,Aurora-2,6 nM
